Like-named read-outs stand apart in the source and are kept apart here.
What was measured:
[1] = test system: RPMI-7951; experiment: Cytotoxicity assay (MTS, 72 h); format: cell-based; conditions: Homo sapiens, Table 1, read-out: IC50 (nM) Melanoma RPMI-7951
[2] = test system: MDA-MB-231; experiment: Cytotoxicity assay (MTS, 72 h); format: cell-based; conditions: Homo sapiens
[3] = test system: MDA-MB-453; experiment: Cytotoxicity assay (MTS, 72 h); format: cell-based, human
[4] = test system: MDA-MB-468; experiment: Cytotoxicity assay (MTS, 72 h); format: cell-based, human; conditions: Table 1, read-out: IC50 (nM) Breast MDA-MB-468
[5] = logP; format: physicochemical; conditions: Table 1; method not described
[6] = test system: human melanoma and breast cancer cell lines; experiment: Cytotoxicity, all tested cell lines of Table 1; format: cell-based; conditions: melanoma and breast lines of Table 1; for IC50: Homo sapiens, read-out: IC50 values, range over all tested cell lines
[7] = test system: A375; experiment: Cytotoxicity assay (MTS, 72 h); conditions: Homo sapiens;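 also: compounds tested from 0.1 nM up to 3 µM in four replicate wells, with absorbance read at 490 nm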
[8] = test system: M14; experiment: Cytotoxicity assay (MTS, 72 h); conditions: Homo sapiens
[9] = test system: Mia PaCa-2; experiment: Cytotoxicity assay (MTS, 72 h); format: cell-based; conditions: Homo sapiens, Table 6, read-out: IC50 (nM) Pancreatic cancer Mia PaCa-2
[10] = test system: PANC-1; experiment: Cytotoxicity assay (MTS, 72 h); format: cell-based; conditions: Homo sapiens, Table 6, read-out: IC50 (nM) Pancreatic cancer PANC-1
Protocol: Mia PaCa-2 and PANC-1 cells were seeded in 96-well plates at 4000 and 5000 cells per well, respectively.
(§1) Cytotoxicity Assay. […] Each experiment consisted of four replicates.

[11] = test system: PC3; experiment: Cytotoxicity assay (MTS, 72 h); format: cell-based; conditions: Homo sapiens, PC-3; Table 6; read-out: IC50 (nM) Prostate cancer PC3
Excerpt: as §1

[12] = test system: PC3/TxR; experiment: Cytotoxicity assay (MTS, 72 h); format: cell-based; conditions: Homo sapiens, Table 6, paclitaxel-resistant, read-out: IC50 (nM) Prostate cancer PC3/TxR
Protocol: Biology. Cell culture and Reagents. […] MIA Paca-2 pancreatic cancer cells were cultured in media also supplemented with 2.5% horse serum. PANC-1 and PC-3 were cultured in RPMI 1640 medium (Gibco, Carlsbad, Calif.) supplemented with 10% FBS and 1% antibiotic/antimycotic mixture. […] For biological experiments, pyrimidine dihydroquinoxalinone derivatives were dissolved in DMSO to create 20 mM stock solutions and stored at −20° C. until use.
as §1

[13] = MDA-MB-231, read-out: IC50 (nM) Breast MDA-MB-231, Table 1
[14] = Homo sapiens, MDA-MB-453, Table 1, read-out: IC50 (nM) Breast MDA-MB-453
[15] = A-375, read-out: IC50 (nM) Melanoma A375, Table 1
[16] = M14, read-out: IC50 (nM) Melanoma M14
[17] = Table 1, read-out: IC50 (nM) Breast MDA-MB-453
[18] = MDA-MB-231, read-out: IC50 (nM) Breast Cancer MDA-MB-231, Table 6
[19] = Homo sapiens, MDA-MB-453, Table 6, read-out: IC50 (nM) Breast Cancer MDA-MB-453
[20] = A-375, read-out: IC50 (nM) Melanoma Cancer A375, Table 6
[21] = M14, read-out: IC50 (nM) Melanoma Cancer M14

Row | Compound | IC50 [1] | IC50 [2, 13] | IC50 [3, 14] | IC50 ([4]; Homo sapiens, MDA-MB-468) | logP [5] | IC50 [6] | IC50 [7, 15] | IC50 [8, 16] | IC50 [3, 17] | IC50 [4] | cytotoxic activity [6] | IC50 [2, 18] | IC50 [3, 19] | IC50 [9] | IC50 [10] | IC50 [11] | IC50 [12] | IC50 [7, 20] | IC50 [8, 21]
1 | COc1ccc2c(c1)NC(=O)CN2c1nc(Cl)nc2c1CCC2 [Compound 5l, 4-(2-chloro-6,7-dihydro-5H-cyclopenta[d]pyrimidin-4-yl)-7-methoxy-3,4-dihydroquinoxalin-2(1H)-one] | 6.8 ± 2.5 nM | 25.7 ± 6.2 nM | 3.7 ± 1.2 nM | 5.6 ± 2.2 nM | 2.74 | 0.4 to 26 nM | 5.5 ± 0.7 nM | 5.9 ± 1.5 nM |  |  |  |  |  |  |  |  |  |  | 
2 | COc1ccc2c(c1)NC(=O)CN2c1ncnc2c1CCC2 [Compound 5n, 4-(6,7-dihydro-5H-cyclopenta[d]pyrimidin-4-yl)-7-methoxy-3,4-dihydroquinoxalin-2(1H)-one] | 14 ± 3.9 nM | 54 ± 9.9 nM | 7.3 ± 1.5 nM | 15.6 ± 3.8 nM | 2.05 |  | 13.4 ± 1.9 nM | 19.1 ± 5.3 nM |  |  |  |  |  |  |  |  |  |  | 
3 | COc1ccc2c(c1)NC(=O)CN2c1nc(Cl)nc2c1CCCC2 [Compound 5o, 4-(2-chloro-5,6,7,8-tetrahydroquinazolin-4-yl)-7-methoxy-3,4-dihydroquinoxalin-2(1H)-one] | > 1000 nM | > 1000 nM |  | > 1000 nM | 3.16 |  | > 1000 nM | > 1000 nM | 256 ± 59.5 nM |  |  |  |  |  |  |  |  |  | 
4 | COc1ccc2c(c1)NC(=O)CN2c1nc(Cl)nc2c1COC2 [Compound 5p, 4-(2-chloro-5,7-dihydrofuro[3,4-d]pyrimidin-4-yl)-7-methoxy-3,4-dihydroquinoxalin-2(1H)-one] | 27.2 ± 3.9 nM | 36.8 ± 4.5 nM |  |  | 1.47 | 19 to 37 nM | 31.8 ± 4.4 nM | 23.3 ± 3 nM | 19.3 ± 3.5 nM | 22.8 ± 4.6 nM |  |  |  |  |  |  |  |  | 
5 | COc1ccc2c(c1)NC(=O)CN2c1nc(Cl)nc(C)c1C [Compound 5q, 4-(2-chloro-5,6-dimethylpyrimidin-4-yl)-7-methoxy-3,4-dihydroquinoxalin-2(1H)-one] | > 1000 nM | > 1000 nM | > 1000 nM | > 1000 nM | 2.76 |  | > 1000 nM | > 1000 nM |  |  | inactive |  |  |  |  |  |  |  | 
6 | COc1ccc2c(c1)NC(=O)CN2c1nc(C)nc(C)c1C [Compound 5r, 7-methoxy-4-(2,5,6-trimethylpyrimidin-4-yl)-3,4-dihydroquinoxalin-2(1H)-one] | 8.9 ± 1.5 nM | 18 ± 2.7 nM |  |  | 2.97 |  | 9 ± 1 nM | 9.8 ± 1.7 nM | 4.3 ± 0.9 nM | 5.2 ± 2.2 nM |  |  |  |  |  |  |  |  | 
7 | COc1ccc2c(c1)NC(=O)CN2c1cc(C)nc2cccnc12 [Compound 5s, 7-methoxy-4-(2-methyl-1,5-naphthyridin-4-yl)-3,4-dihydroquinoxalin-2(1H)-one] | 14.4 ± 2.4 nM | 23.9 ± 4.1 nM | 12.9 ± 2.3 nM | 18.5 ± 4.1 nM | 1.96 | 13 to 24 nM | 15 ± 2.1 nM | 18.3 ± 2.9 nM |  |  |  |  |  |  |  |  |  |  | 
8 | CCNc1nc(N2CC(=O)Nc3cc(OC)ccc32)c2cccnc2n1 [Compound 5u, 4-(2-(ethylamino)pyrido[2,3-d]pyrimidin-4-yl)-7-methoxy-3,4-dihydroquinoxalin-2(1H)-one] | 4.8 ± 0.8 nM | 6.7 ± 1.2 nM | 4.5 ± 0.9 nM |  | 2.51 | 0.4 to 26 nM | 5.8 ± 1 nM | 5.4 ± 0.7 nM |  | 10.5 ± 1.6 nM |  |  |  |  |  |  |  |  | 
9 | COc1ccc2c(c1)NC(=O)CN2c1nc(SC)nc2c1CCC2 [Compound 10, 7-methoxy-4-(2-(methylthio)-6,7-dihydro-5H-cyclopenta[d]pyrimidin-4-yl)-3,4-dihydroquinoxalin-2(1H)-one] |  |  |  |  |  |  |  |  |  |  |  | 4.3 ± 0.7 nM | 1.4 ± 0.6 nM | 3.9 ± 0.6 nM | 3.4 ± 0.6 nM | 2.4 ± 0.4 nM | 1.6 ± 0.2 nM | 3.4 ± 0.5 nM | 3.2 ± 0.5 nM
10 | COc1ccc2c(c1)NC(=O)CN2c1nc(OC)nc2c1CCC2 [Compound 12b, 7-methoxy-4-(2-methoxy-6,7-dihydro-5H-cyclopenta[d]pyrimidin-4-yl)-3,4-dihydroquinoxalin-2(1H)-one] |  |  |  |  |  |  |  |  |  |  |  | 7.5 ± 1.5 nM | 3.4 ± 0.8 nM | 9 ± 1.3 nM | 9.4 ± 1.5 nM | 7.2 ± 1.2 nM | 4.7 ± 0.7 nM | ~3.2 nM | 5.3 ± 1.1 nM
11 | COc1ccc2c(c1)NC(=O)CN2c1nc(N)nc2c1CCC2 [Compound 12c, 4-(2-amino-6,7-dihydro-5H-cyclopenta[d]pyrimidin-4-yl)-7-methoxy-3,4-dihydroquinoxalin-2(1H)-one] |  |  |  |  |  |  |  |  |  |  |  | 2.3 ± 0.5 nM | 1.4 ± 0.4 nM | 5 ± 0.7 nM | 5.5 ± 1 nM | 3.8 ± 0.6 nM | 2.3 ± 0.3 nM | ~2.01 nM | 1.7 ± 0.3 nM
12 | COc1ccc2c(c1)NC(=O)CN2c1nc(N2CCOCC2)nc2c1CCC2 [Compound 12e, 7-methoxy-4-(2-morpholino-6,7-dihydro-5H-cyclopenta[d]pyrimidin-4-yl)-3,4-dihydroquinoxalin-2(1H)-one] |  |  |  |  |  |  |  |  |  |  |  | 25.8 ± 4.6 nM | 17.6 ± 4 nM | 44.4 ± 7.1 nM | 56.2 ± 9 nM | 23.9 ± 3.6 nM | 14.4 ± 2.2 nM | ~13.6 nM | 18.3 ± 3.7 nM
13 | COc1ccc2c(c1)NC(=O)CN2c1nc(-n2ccnc2)nc2c1CCC2 [Compound 12h, 4-(2-(1H-imidazol-1-yl)-6,7-dihydro-5H-cyclopenta[d]pyrimidin-4-yl)-7-methoxy-3,4-dihydroquinoxalin-2(1H)-one] |  |  |  |  |  |  |  |  |  |  |  | 8.4 ± 1.5 nM | 4.5 ± 1.2 nM | 15.5 ± 2.5 nM | 11.5 ± 2.3 nM | 8.2 ± 1.4 nM | 4.7 ± 0.7 nM | ~5.7 nM | 5.8 ± 1.2 nM
14 | COc1ccc2c(c1)NC(=O)CN2c1nc(N=C=S)nc2c1CCC2 [Compound 12l, 4-(2-isothiocyanato-6,7-dihydro-5H-cyclopenta[d]pyrimidin-4-yl)-7-methoxy-3,4-dihydroquinoxalin-2(1H)-one] |  |  |  |  |  |  |  |  |  |  |  | 4.9 ± 0.8 nM | 2.9 ± 0.6 nM | 7.3 ± 1.2 nM | 10.7 ± 2.3 nM | 6.3 ± 0.8 nM | 4.8 ± 0.7 nM | ~3.3 nM | 2.6 ± 0.4 nM
15 | COc1ccc2c(c1)NC(=O)CN2c1nc(NCCO)nc2c1CCC2 [Compound 12m, 4-(2-((2-hydroxyethyl)amino)-6,7-dihydro-5H-cyclopenta[d]pyrimidin-4-yl)-7-methoxy-3,4-dihydroquinoxalin-2(1H)-one] |  |  |  |  |  |  |  |  |  |  |  | 8.6 ± 1.2 nM | 6.4 ± 1.6 nM | 23.6 ± 3.5 nM | 43.1 ± 8.2 nM | 14.8 ± 1.8 nM | 15 ± 1.6 nM | ~8.6 nM | 7 ± 1 nM
